Where “and” joins values, the source holds several entries; their conditions need not be identical. Equal values may be shown once.
Assay: mn = molality of the nth substance listed, in mol/kg
Details: 101 kPa, Liquid; for viscosity: Capillary tube (Ostwald / Ubbelohde) method; for mass density: Vibrating tube method

Cc1ncc(CO)c(CO)c1O.Cl [5-hydroxy-6-methyl-3,4-pyridinedimethanol hydrochloride] + O
Details | mass density, 293.15 K | mass density, 303.15 K [kg/m3] | mass density, 313.15 K | mass density, 323.15 K [kg/m3] | viscosity, 293.15 K [mPa·s] | viscosity, 303.15 K | viscosity, 313.15 K | viscosity, 323.15 K [mPa·s]
m1 = 0.0999 | 1004.23 kg/m3 | 1001.56 | 998.03 kg/m3 | 993.8 | 1.044 | 0.829 mPa·s | 0.678 mPa·s | 0.568
m1 = 0.1 | 1004.23 kg/m3 | 1001.57 | 998.04 kg/m3 | 993.81 | 1.044 | 0.83 mPa·s | 0.679 mPa·s | 0.568
m1 = 0.1008 | 1004.28 kg/m3 | 1001.61 | 998.1 kg/m3 | 993.86 | 1.044 | 0.83 mPa·s | 0.679 mPa·s | 0.568
m1 = 0.1992 | 1010 kg/m3 | 1007.23 | 1003.65 kg/m3 | 999.27 | 1.084 | 0.861 mPa·s | 0.703 mPa·s | 0.587
m1 = 0.2016 | 1010.1 kg/m3 and 1010.09 kg/m3 | 1007.34 | 1003.75 kg/m3 and 1003.74 kg/m3 | 999.43 | 1.085 | 0.861 mPa·s | 0.704 mPa·s and 0.703 mPa·s | 0.587
m1 = 0.2025 | 1010.19 kg/m3 | 1007.42 | 1003.85 kg/m3 | 999.49 | 1.085 | 0.862 mPa·s | 0.704 mPa·s | 0.589
m1 = 0.3 | 1015.66 kg/m3 and 1015.67 kg/m3 | 1012.81 | 1009.15 kg/m3 | 1004.74 | 1.127 | 0.894 mPa·s and 0.893 mPa·s | 0.729 mPa·s | 0.608
m1 = 0.3014 | 1015.74 kg/m3 | 1012.88 | 1009.21 kg/m3 | 1004.83 | 1.127 | 0.894 mPa·s | 0.729 mPa·s | 0.609
m1 = 0.3999 | 1021.12 kg/m3 and 1021.11 kg/m3 | 1018.15 | 1014.45 kg/m3 | 1010.01 | 1.169 | 0.926 mPa·s | 0.755 mPa·s | 0.629
m1 = 0.4001 | 1021.16 kg/m3 | 1018.19 | 1014.46 kg/m3 | 1010.02 | 1.172 | 0.926 mPa·s | 0.755 mPa·s | 0.629

Source: the NIST ThermoML archive (doi:10.1021/acs.jced.5b00114)
